Laboratory results: patent publication US10098889B2, “Complexes and salts of dihydropyrimidine derivatives and their application in pharmaceuticals” (SUNSHINE LAKE PHARMA CO., LTD., priority 2015, dated 2018)

Assays:
Format in all cases: physicochemical
[1] = High temperature test (stability study)
Protocol: (§1) High temperature test: an appropriate amount of sample was put in a weighing bottle in the form of a thin layer of ≤5 mm, under a temperature of 60° C. for 10 days. Appearance, impurity and purity of the samples were tested respectively at the 5th and 10th day. […] If the sample has no significant change occurred at 60° C., it is not necessary to do the experiment under the condition of 40° C.
(§2) Experimental results of stability study of the compound of (S)-4-(((R)-6-(2-chloro-4-fluorophenyl)-5-(methoxycarbonyl)-2-(thiazol-2-yl)-3,6-dihydropyrimidin-4-yl)methyl)morpholine-3-carboxylic acid amorphous and the complex of (S)-4-(((R)-6-(2-chloro-4-fluorophenyl)-5-(methoxycarbonyl)-2-(thiazol-2-yl)-1,6-dihydropyrimidin-4-yl)methyl)morpholine-3-carboxylic acid and L-tartaric acid and its various salt forms under high temperature, high humidity and illumination conditions are shown in Table 4.

[2] = Stability studies under high temperature, high humidity and illumination conditions (overall assessment); details: for Stability under high temperature, high humidity and illumination condition (in words): compared with amorphous compound (I)
Protocol: as §1
(§3) High humidity test: an appropriate amount of sample was put in a weighing bottle in the form of a thin layer of ≤5 mm, under a temperature of 25° C. for 10 days. Appearance, impurity and purity were tested respectively at the 5th and 10th day. If the moisture-absorption weight of the sample gains more than 5%, then the sample needs to be retested in the same manner under the conditions of 25° C. and RH75%±5%. If the moisture-absorption weight of the sample gains less than 5%, and other results meets the requirements, it is not necessary to do the experiment any more. (Note: the weighing bottle should be presaturated for one day by putting it into the humidistat (or a dryer containing a saturated solution of potassium nitrate) before high humidity test, then weighing the sample and weighing bottle together, and record the weight.)
(§4) Illumination test: an appropriate amount of sample was put in a weighing bottle in the form of a thin layer of ≤5 mm, under a […] for 13 days. Appearance, impurity and purity of the samples were tested respectively at the 5th and 13th day.

[3] = Illumination test (stability study)
Protocol: as §4, §2

[4] = High humidity test (stability study); details: 25° C.
Protocol: as §3, §2

Solubility (HPLC) = test: Solubility (HPLC)
Protocol: The solubility disclosed herein was measured by Aglient 1200 high performance liquid chromatograph VWD detector. The chromatographic column model is Waters Xbridge-C18 (4.6×150 mm, […]). The detection wavelength was 250 nm, the flow rate was 1.0 mL/minute, the column temperature was 35° C., the mobile phase was acetonitrile water (v/v=40/60).

[5] = Experimental study of hygroscopicity; details: for Weighting percentage of moisture absorption (%): constant humidity
Protocol: A dry glass weighing bottle with a plug was placed in a suitable thermostatic drier at 25° C.±1° C. (ammonium chloride and saturated solution of ammonium sulfate were placed on the bottom) on the day before the experiment, and weighed precisely. The propriate amount of the sample was plated into the weighing bottle, wherein the thickness of the sample typically is about 1 mm, and weighed precisely (m2). The weighing bottle was open and placed with the plug in the above constant temperature and humidity condition for 24 hours. The capped weighing bottle was weighed precisely (m3), and the weight gain percentage was calculated (%).
Test method: according to the Ph. Eur. <5.11>; Ch. P. 2010; II appendix XIX J; Weighting percentage of moisture absorption (%)=(m3−m2)/(m2−m1)×100%
Hygroscopicity characteristics: weighting percentage of moisture absorption
Judgement of Hygroscopicity Result:
(1) Air slaking: absorbing enough water to form liquid
(2) Of quite hygroscopicity: not less than 15%
(3) Of hygroscopicity: less than 15% but not less 2%
(4) Of slight hygroscopicity: less than 2% but not less than 0.2%

[6] = High temperature, 60° C., 5 days
[7] = High temperature, 60° C., 10 days

Compound	Appearance ([1]; 0 days)	Purity (%) ([1]; 0 days)	Total impurity (%) ([1]; 0 days)	Appearance [1, 6]	Purity (%) [1, 6] [%]	Total impurity (%) [1, 6] [%]	Appearance [1, 7]	Purity (%) [1, 7] [%]	Total impurity (%) [1, 7] [%]	Appearance ([3]; 5 days)	Purity (%) ([3]; 5 days)	Total impurity (%) ([3]; 5 days)	Appearance ([3]; 13 days)	Purity (%) ([3]; 13 days)	Total impurity (%) ([3]; 13 days)	Appearance ([4]; 5 days)	Purity (%) ([4]; 5 days)	Total impurity (%) ([4]; 5 days)	Appearance ([4]; 10 days)	Purity (%) ([4]; 10 days)	other results
COC(=O)C1=C(CN2CCOC[C@H]2C(=O)O)N=C(c2nccs2)N[C@H]1c1ccc(F)cc1Cl.Cl [(S)-4-(((R)-6-(2-chloro-4-fluorophenyl)-5-(methoxycarbonyl)-2-(thiazol-2-yl)-1,6-dihydropyrimidin-4-yl)methyl)morpholine-3-carboxylic Acid Hydrochloride]	yellow	99.63	0.37	yellow	99.63	0.37	yellow	99.43	0.57	yellow	97.59	2.41	yellow	97.47	2.53	yellow	99.65	0.35	yellow	99.59	Stability under high temperature, high humidity and illumination condition (in words) [2]: better stability; Total impurity (%) ([4]; 10 days): 0.41%
Br.COC(=O)C1=C(CN2CCOC[C@H]2C(=O)O)N=C(c2nccs2)N[C@H]1c1ccc(F)cc1Cl [(S)-4-(((R)-6-(2-chloro-4-fluorophenyl)-5-(methoxycarbonyl)-2-(thiazol-2-yl)-1,6-dihydropyrimidin-4-yl)methyl)morpholine-3-carboxylic Acid Hydrobromide]	yellow	99.70	0.30	yellow	99.69	0.31	yellow	99.63	0.37	yellow	97.63	2.37	yellow	96.06	3.94	yellow	99.68	0.32	yellow	99.64	Stability under high temperature, high humidity and illumination condition (in words) [2]: better stability; Total impurity (%) ([4]; 10 days): 0.36%
COC(=O)C1=C(CN2CCOC[C@H]2C(=O)O)N=C(c2nccs2)N[C@H]1c1ccc(F)cc1Cl.O=C(O)C(O)C(O)C(=O)O [Complex of (S)-4-(((R)-6-(2-chloro-4-fluorophenyl)-5-(methoxycarbonyl)-2-(thiazol-2-yl)-1,6-dihydropyrimidin-4-yl)methyl)morpholine-3-carboxylic Acid and L-tartaric Acid]	yellow	99.85	0.15	yellow	99.83	0.17	yellow	99.84	0.16	yellow	99.86	0.14	yellow	99.84	0.16	yellow	99.84	0.16	yellow	99.82	oxide impurities ([1]; preparation purity, from Table 4): less than 0.2%; Stability under high temperature, high humidity and illumination condition (in words) [2]: best stability; Change of appearance and purity under high temperature, high humidity and illumination condition ([2]; listed as L-tartaric acid complex having crystalline form I(A)): basically unchanged; Change of appearance and purity under high temperature, high humidity and illumination condition ([2]; listed as complex formed from compound (I) and L-tartaric acid): unchanged substantially; Total impurity (%) ([4]; 10 days): 0.18%; Solubility (in words) (Solubility (HPLC)): good solubility; Hygroscopicity (in words) [5]: much smaller; Judgement of hygroscopicity result ([5]; 25° C.±1° C., 24 hours): of no or little hygroscopicity; Weighting percentage of moisture absorption (%) ([5]; 25° C.±1° C., 24 hours, listed as Crystalline form I(A) of the complex of compound (Ia) and L-tartaric acid): 0.029%; Weighting percentage of moisture absorption (%) ([5]; 25° C.±1° C., 24 hours, listed as crystalline form I(A) of the complex of compound (Ia) and L-tartaric acid): 0.029%
COC(=O)C1=C(CN2CCOC[C@H]2C(=O)O)NC(c2nccs2)=N[C@H]1c1ccc(F)cc1Cl [(S)-4-(((R)-6-(2-chloro-4-fluorophenyl)-5-(methoxycarbonyl)-2-(thiazol-2-yl)-3,6-dihydropyrimidin-4-yl)methyl)morpholine-3-carboxylic Acid]	a yellow	97.54	2.46	a yellow	96.99	3.01	a yellow	95.65	4.35	a yellow	93.72	6.28	a yellow	90.56	9.44	a yellow	97.51	2.49	a yellow	97.42	Total impurity (%) ([4]; 10 days): 2.58%; Hygroscopicity (in words) [5]: certain hygroscopicity; Weighting percentage of moisture absorption (%) ([5]; 25° C.±1° C., 24 hours, listed as Compound (I) prepared by Example 1): 1.441%; Weighting percentage of moisture absorption (%) ([5]; 25° C.±1° C., 24 hours, listed as compound (I)): 1.441%
